The values below come from article PMC10382935 (The Cell Surface, 2023).

In general, Kd refers to a measure of binding affinity in units of concentration. Read a low Kd as higher affinity.

This experiment concerns the target T1, CRD DC-SIGN (carbohydrate recognition domain of DC-SIGN, 15N labelled) (Homo sapiens, UniProt Q9NNX6).
T1 sequence (Q9NNX6 250-404 limits assumed): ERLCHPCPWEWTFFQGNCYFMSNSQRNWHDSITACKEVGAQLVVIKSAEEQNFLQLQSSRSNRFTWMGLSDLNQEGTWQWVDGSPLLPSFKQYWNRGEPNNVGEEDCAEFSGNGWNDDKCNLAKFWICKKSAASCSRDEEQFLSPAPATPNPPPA
The experiment in a line: 1H, […]-HSQC NMR titration. The class given is binding.

In the case of `NCCCO[C@H]1O[C@H](CO)[C@@H](O)[C@H](O)[C@@H]1O[C@H]1O[C@H](CO)[C@@H](O)[C@H](O)[C@@H]1O[C@H]1O[C@H](CO)[C@@H](O)[C@H](O[C@H]2O[C@H](CO)[C@@H](O)[C@H](O)[C@@H]2O[C@H]2O[C@H](CO)[C@@H](O)[C@H](O)[C@@H]2O)[C@@H]1O` [compound 29, pentasaccharide 29], the Kd was roughly 600 µM.
`NCCCO[C@H]1O[C@H](CO)[C@@H](O)[C@H](O)[C@@H]1O[C@H]1O[C@H](CO)[C@@H](O)[C@H](O)[C@@H]1O[C@H]1O[C@H](CO)[C@@H](O)[C@H](O)[C@@H]1O[C@H]1O[C@H](CO)[C@@H](O)[C@H](O[C@H]2O[C@H](CO)[C@@H](O)[C@H](O)[C@@H]2O[C@H]2O[C@H](CO)[C@@H](O)[C@H](O)[C@@H]2O)[C@@H]1O` [compound 30, hexasaccharide 30] gave an equilibrium dissociation constant (Kd) of roughly 1100 µM.
